Measurements published in the supplement of paper PMC10307832.

Tests used:
Experiment in all cases: relative viability (nuclei count vs DMSO), 5 days (fraction); higher = more cells survive
[1] = tested on: NCI-H522
Summary of the method: (§1)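 Lung cancer cell lines in 1536-well plates got either a single drug or a fixed anchor-drug dose together with five library-drug doses (not always all listed) in √10 steps, by pin tool, on the day after seeding. Nuclei were counted after 5 days, and relative viability is the treated-to-vehicle ratio of nuclei counts. Values are medians of duplicate plates.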

[2] = tested on: CAL-12T
Summary of the method: as §1

[3] = tested on: NCI-H1944
Summary of the method: as §1

[4] = tested on: NCI-H1395
Summary of the method: as §1

[5] = tested on: LC-2-ad
Summary of the method: as §1

[6] = tested on: NCI-H1734
Summary of the method: as §1

[7] = tested on: HCC-15
Summary of the method: as §1

[8] = tested on: LU99A
Summary of the method: as §1

[9] = tested on: COR-L 105
Summary of the method: as §1

[10] = tested on: PC-14
Summary of the method: as §1

[11] = tested on: NCI-H1975
Summary of the method: as §1

[12] = tested on: H3255
Summary of the method: as §1

[13] = tested on: NCI-H1666
Summary of the method: as §1

[14] = tested on: PC-3 [JPC-3]
Summary of the method: as §1

[15] = tested on: HCC-366
Summary of the method: as §1

[16] = tested on: NCI-H520
Summary of the method: as §1

[17] = tested on: NCI-H3122
Summary of the method: as §1

[18] = tested on: NCI-H647
Summary of the method: as §1

[19] = tested on: NCI-H1563
Summary of the method: as §1

[20] = tested on: NCI-H661
Summary of the method: as §1

[21] = tested on: NCI-H838
Summary of the method: as §1

[22] = tested on: NCI-H1993
Summary of the method: as §1

[23] = tested on: SK-LU-1
Summary of the method: as §1

[24] = tested on: HARA
Summary of the method: as §1

[25] = tested on: NCI-H2228
Summary of the method: as §1

CCCCCCCCCCCC1=C(O)C(=O)C=C(O)C1=O [Embelin] + Nc1nc2[nH]cc(CCc3ccc(C(=O)N[C@@H](CCC(=O)O)C(=O)O)cc3)c2c(=O)[nH]1 [Pemetrexed] (partner 0.2 µM)
relative viability ([1]; first compound 0.08 µM): 0.901
relative viability ([1]; first compound 0.8 µM): 1.06
relative viability ([1]; first compound 2.53 µM): 0.957
relative viability ([1]; first compound 8 µM): 0.837
relative viability ([2]; first compound 0.08 µM): 1.11
relative viability ([2]; first compound 0.8 µM): 1.4
relative viability ([2]; first compound 2.53 µM): 1.1
relative viability ([2]; first compound 8 µM): 1.06
relative viability ([3]; first compound 0.08 µM): 0.545
relative viability ([3]; first compound 0.8 µM): 0.754
relative viability ([3]; first compound 2.53 µM): 0.578
relative viability ([3]; first compound 8 µM): 0.643
relative viability ([4]; first compound 0.08 µM): 0.828
relative viability ([4]; first compound 0.8 µM): 1.03
relative viability ([4]; first compound 2.53 µM): 0.856
relative viability ([4]; first compound 8 µM): 0.585
relative viability ([5]; first compound 0.08 µM): 0.274
relative viability ([5]; first compound 0.8 µM): 0.282
relative viability ([5]; first compound 2.53 µM): 0.257
relative viability ([5]; first compound 8 µM): 0.288
relative viability ([6]; first compound 0.08 µM): 0.434
relative viability ([6]; first compound 0.8 µM): 0.447
relative viability ([6]; first compound 2.53 µM): 0.414
relative viability ([6]; first compound 8 µM): 0.401
relative viability ([7]; first compound 0.08 µM): 0.226
relative viability ([7]; first compound 0.8 µM): 0.24
relative viability ([7]; first compound 2.53 µM): 0.233
relative viability ([7]; first compound 8 µM): 0.207
relative viability ([8]; first compound 0.08 µM): 0.182
relative viability ([8]; first compound 0.8 µM): 0.178
relative viability ([8]; first compound 2.53 µM): 0.15
relative viability ([8]; first compound 8 µM): 0.192
relative viability ([9]; first compound 0.08 µM): 1.15
relative viability ([9]; first compound 0.8 µM): 1.21
relative viability ([9]; first compound 2.53 µM): 1
relative viability ([9]; first compound 8 µM): 1.08
relative viability ([10]; first compound 0.08 µM): 0.158
relative viability ([10]; first compound 0.8 µM): 0.126
relative viability ([10]; first compound 2.53 µM): 0.134
relative viability ([10]; first compound 8 µM): 0.153
relative viability ([11]; first compound 0.08 µM): 0.313
relative viability ([11]; first compound 0.8 µM): 0.286
relative viability ([11]; first compound 2.53 µM): 0.285
relative viability ([11]; first compound 8 µM): 0.311
relative viability ([12]; first compound 0.08 µM): 0.566
relative viability ([12]; first compound 0.8 µM): 0.616
relative viability ([12]; first compound 2.53 µM): 0.597
relative viability ([12]; first compound 8 µM): 0.585
relative viability ([13]; first compound 0.08 µM): 0.922
relative viability ([13]; first compound 0.8 µM): 0.894
relative viability ([13]; first compound 2.53 µM): 0.849
relative viability ([13]; first compound 8 µM): 0.817
relative viability ([14]; first compound 0.08 µM): 1.04
relative viability ([14]; first compound 0.8 µM): 1.17
relative viability ([14]; first compound 2.53 µM): 1.07
relative viability ([14]; first compound 8 µM): 0.634
relative viability ([15]; first compound 0.08 µM): 0.161
relative viability ([15]; first compound 0.8 µM): 0.149
relative viability ([15]; first compound 2.53 µM): 0.151
relative viability ([15]; first compound 8 µM): 0.236
relative viability ([16]; first compound 0.08 µM): 0.656
relative viability ([16]; first compound 0.8 µM): 0.852
relative viability ([16]; first compound 2.53 µM): 0.708
relative viability ([16]; first compound 8 µM): 0.821
relative viability ([17]; first compound 0.08 µM): 0.193
relative viability ([17]; first compound 0.8 µM): 0.202
relative viability ([17]; first compound 2.53 µM): 0.202
relative viability ([17]; first compound 8 µM): 0.2
relative viability ([18]; first compound 0.08 µM): 0.19
relative viability ([18]; first compound 0.8 µM): 0.246
relative viability ([18]; first compound 2.53 µM): 0.169
relative viability ([18]; first compound 8 µM): 0.214
relative viability ([19]; first compound 0.08 µM): 0.742
relative viability ([19]; first compound 0.8 µM): 0.767
relative viability ([19]; first compound 2.53 µM): 0.693
relative viability ([19]; first compound 8 µM): 0.713
relative viability ([20]; first compound 0.08 µM): 0.953
relative viability ([20]; first compound 0.8 µM): 0.936
relative viability ([20]; first compound 2.53 µM): 0.886
relative viability ([20]; first compound 8 µM): 0.896
relative viability ([21]; first compound 0.08 µM): 0.271
relative viability ([21]; first compound 0.8 µM): 0.238
relative viability ([21]; first compound 2.53 µM): 0.252
relative viability ([21]; first compound 8 µM): 0.247
relative viability ([22]; first compound 0.08 µM): 0.609
relative viability ([22]; first compound 0.8 µM): 0.568
relative viability ([22]; first compound 2.53 µM): 0.581
relative viability ([22]; first compound 8 µM): 0.554
relative viability ([23]; first compound 0.08 µM): 0.975
relative viability ([23]; first compound 0.8 µM): 1.13
relative viability ([23]; first compound 2.53 µM): 0.962
relative viability ([23]; first compound 8 µM): 0.988
relative viability ([24]; first compound 0.08 µM): 0.292
relative viability ([24]; first compound 0.8 µM): 0.279
relative viability ([24]; first compound 2.53 µM): 0.256
relative viability ([24]; first compound 8 µM): 0.208
relative viability ([25]; first compound 0.08 µM): 0.329
relative viability ([25]; first compound 0.8 µM): 0.347
relative viability ([25]; first compound 2.53 µM): 0.345
relative viability ([25]; first compound 8 µM): 0.39
